Molecular target: T1, Toll-like receptor 7 (Homo sapiens, UniProt Q9NYK1)
T1 sequence (Q9NYK1 whole entry): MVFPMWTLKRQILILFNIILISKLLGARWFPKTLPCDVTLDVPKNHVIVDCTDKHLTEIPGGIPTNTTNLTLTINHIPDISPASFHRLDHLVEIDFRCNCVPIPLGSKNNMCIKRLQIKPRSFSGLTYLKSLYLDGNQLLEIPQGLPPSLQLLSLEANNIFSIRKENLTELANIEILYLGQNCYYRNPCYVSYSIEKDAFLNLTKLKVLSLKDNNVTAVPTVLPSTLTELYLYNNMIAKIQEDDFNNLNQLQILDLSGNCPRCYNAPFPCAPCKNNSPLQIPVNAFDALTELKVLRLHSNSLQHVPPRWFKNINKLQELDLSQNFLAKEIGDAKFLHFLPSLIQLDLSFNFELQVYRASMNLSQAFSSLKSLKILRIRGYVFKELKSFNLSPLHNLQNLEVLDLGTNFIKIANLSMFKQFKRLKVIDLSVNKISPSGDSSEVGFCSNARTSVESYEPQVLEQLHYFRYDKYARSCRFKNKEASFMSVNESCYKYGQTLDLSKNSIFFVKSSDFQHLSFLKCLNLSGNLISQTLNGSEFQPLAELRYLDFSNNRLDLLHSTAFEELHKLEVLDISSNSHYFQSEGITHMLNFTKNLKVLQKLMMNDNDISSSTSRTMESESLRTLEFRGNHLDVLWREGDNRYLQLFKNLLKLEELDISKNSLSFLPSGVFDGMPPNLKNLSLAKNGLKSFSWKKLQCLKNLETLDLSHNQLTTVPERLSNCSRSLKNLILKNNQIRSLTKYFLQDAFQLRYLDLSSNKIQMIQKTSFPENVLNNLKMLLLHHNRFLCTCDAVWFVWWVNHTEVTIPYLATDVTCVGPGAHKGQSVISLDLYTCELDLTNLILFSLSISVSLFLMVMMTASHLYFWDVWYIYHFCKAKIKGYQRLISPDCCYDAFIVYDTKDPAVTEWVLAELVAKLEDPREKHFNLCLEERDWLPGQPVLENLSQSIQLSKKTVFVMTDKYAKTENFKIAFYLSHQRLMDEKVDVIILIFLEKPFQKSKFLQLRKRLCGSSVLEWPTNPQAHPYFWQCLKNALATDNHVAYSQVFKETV
Experiment: HEK-Blue™ TLR7 cells were added to each well of a 384-well tissue-culture plate (15,000 cells per well) and incubated 16-18 h at 37° C., 5% CO2. Compounds (100 nl) were dispensed into wells containing the HEK-Blue™ TLR cells and the treated cells were incubated at 37° C., 5% CO2. After 18 h treatment ten microliters of freshly-prepared Quanti-Blue reagent (Invivogen) was added to each well, incubated for 30 min (37° C., 5% CO2) and SEAP levels measured using an Envision plate reader (OD=620 nm).

CCCCOc1nc(N)c2nc(O)n(Cc3ccc(-c4csc(CN)c4)nc3)c2n1
EC50: 52 nM

CCCCOc1nc(N)c2nc(O)n(Cc3ccc(-c4csc(CN)c4)cc3)c2n1
EC50: 59 nM

— ChEMBL document CHEMBL5727404, “Toll-like receptor 7 (TLR7) agonists having a heterobiaryl moiety, conjugates thereof, and methods and uses therefor” (2019)
